Experimental data taken from paper PMC2962730 (Journal of neurochemistry, 2010).
Positions count from the first letter of the chain named.

Legend:
hVAChT F231A = molecular target: T1, hVAChT F231A (Homo sapiens, UniProt Q16572, F231A); assay: [3H]vesamicol saturation binding; conditions: pH 7.4
T1 sequence (Q16572 1-532 F231A): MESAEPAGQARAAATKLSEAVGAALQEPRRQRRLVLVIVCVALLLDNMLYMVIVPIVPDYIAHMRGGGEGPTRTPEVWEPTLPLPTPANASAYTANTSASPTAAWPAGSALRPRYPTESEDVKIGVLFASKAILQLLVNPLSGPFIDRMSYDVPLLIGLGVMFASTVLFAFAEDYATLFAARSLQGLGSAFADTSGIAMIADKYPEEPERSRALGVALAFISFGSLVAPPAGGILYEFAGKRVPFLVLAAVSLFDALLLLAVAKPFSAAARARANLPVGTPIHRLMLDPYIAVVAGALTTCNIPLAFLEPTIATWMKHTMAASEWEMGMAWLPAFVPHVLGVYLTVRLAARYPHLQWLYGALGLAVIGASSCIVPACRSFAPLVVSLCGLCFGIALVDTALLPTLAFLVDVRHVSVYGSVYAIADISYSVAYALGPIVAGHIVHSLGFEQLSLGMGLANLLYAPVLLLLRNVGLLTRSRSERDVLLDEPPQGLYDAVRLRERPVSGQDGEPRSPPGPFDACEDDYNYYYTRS

hVAChT W315A = molecular target: T2, hVAChT W315A (Homo sapiens, UniProt Q16572, W315A); assay: [3H]vesamicol saturation binding; conditions: pH 7.4
T2 sequence (Q16572 1-532 W315A): T1 sequence (Q16572 1-532 F231A) with A231F, W315A

hVAChT A334F = molecular target: T3, hVAChT A334F (Homo sapiens, UniProt Q16572, A334F); assay: [3H]vesamicol saturation binding; conditions: pH 7.4
T3 sequence (Q16572 1-532 A334F): T1 sequence (Q16572 1-532 F231A) with A231F, A334F

hVAChT F392A = molecular target: T4, hVAChT F392A (Homo sapiens, UniProt Q16572, F392A); assay: ACh equilibrium binding by competition against [3H]vesamicol
T4 sequence (Q16572 1-532 F392A): T1 sequence (Q16572 1-532 F231A) with A231F, F392A

hVAChT C391A = molecular target: T5, hVAChT C391A (Homo sapiens, UniProt Q16572, C391A); assay: [3H]ACh transport; assay type: biochemical
T5 sequence (Q16572 1-532 C391A): T1 sequence (Q16572 1-532 F231A) with A231F, C391A

Kd (hVAChT F392A) [mM] | FHA, fraction of the ACh sites that have high affinity (hVAChT F392A; F392A hVAChT, pH 7.4) | ACh transport faster than wild-type (hVAChT C391A; C391A hVAChT vs wild-type) | Vmax/Bmax, ACh transport normalized to Bmax (hVAChT C391A; C391A hVAChT, pH 7.4) [min⁻¹] | Km (hVAChT C391A; read-out: KM, Michaelis-Menten constant for ACh transport, C391A hVAChT, pH 7.4) [µM] | Compound | Bmax, maximal specific [3H]vesamicol binding (VAChT expression level) (hVAChT F231A) [pmol/mg] | Bmax, maximal specific [3H]vesamicol binding (VAChT expression level) (hVAChT W315A) [pmol/mg] | Bmax, maximal specific [3H]vesamicol binding (VAChT expression level) (hVAChT A334F) [pmol/mg]
– | – | – | – | – | O[C@@H]1CCCC[C@H]1N1CCC(c2ccccc2)CC1 (racemic) [vesamicol, ( )-trans-2-(4-phenylpiperidino)cyclohexanol] | 64 ± 4 | 26 ± 1 | 13 ± 1
7.9 ± 1.3 | 0.91 ± 0.06 | about 2 times | 15 ± 2 | 1800 ± 300 | CC(=O)OCC[N+](C)(C)C [ACh, acetylcholine] | – | – | –
